Laboratory results taken from PubChem BioAssay AID720727 (Broad Institute, 2013).
Activity calls are given as the source filed them.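 The calls were made as follows: active = compound whose rising-signal curve crosses activity 40 at or below its top valid dose; inconclusive = flat curve holding activity 30 to 70, or poor fit; inactive = the rest.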

Tested on: Huh7 miR-21 level, qRT-PCR, 48 h
Experiment: miR-21 fold change in Huh7 hepatoma cells – cell-based, qRT-PCR, dry powder, selectivity assay for miR-122 activator project, dose response (AID 720727)

Row | SMILES | AC40
1 | CN1C(=O)c2cc(NC(=O)c3cccc(F)c3)ccc2OC[C@H]2O[C@@H](CC(=O)O)CC[C@@H]21 | 32.5 µM
2 | CNC[C@@H]1Oc2cc(C#CC3CCCCC3)ccc2S(=O)(=O)N([C@@H](C)CO)C[C@@H]1C | 29.2 µM
3 | CCn1cc(C(=O)O)c(=O)c2cc(F)c(N3CCNCC3)nc21 | > 35 µM (inactive)
4 | COc1ccc(S(=O)(=O)N(C)C[C@@H]2Oc3ncc(/C=C/c4ccccc4)cc3C(=O)N([C@@H](C)CO)C[C@@H]2C)cc1 | 14.9 µM
5 | CN(C)CCCOc1nn(Cc2ccccc2)c2ccccc12 | 11.4 µM
6 | C[C@H]1CN([C@@H](C)CO)C(=O)c2cc(-c3ccc(C#N)cc3)cnc2O[C@H]1CN(C)C(=O)c1ccccc1 | 30.6 µM
7 | CN(CC(=O)Nc1cccc(Cl)c1)S(=O)(=O)c1ccc2c(c1)n(C)c(=O)c(=O)n2C | 29.8 µM
8 | CCOC(=O)N1CCC(NC(=O)c2ccc3c(c2)sc2nc(-c4ccccc4)cn23)CC1 | 17.5 µM
9 | O=C(CN=C1NS(=O)(=O)c2ccccc21)Nc1ccccc1N1CCCCCC1 | 28.4 µM
10 | Cc1cccc(NC(=O)Nc2ccc3c(c2)C(=O)N(C)[C@@H]2CC[C@H](CC(=O)NCc4ccccc4Cl)O[C@H]2CO3)c1 | 17.9 µM
11 | CN1C(=O)c2cc(NC(=O)c3cccc(F)c3)ccc2OC[C@H]2O[C@@H](CC(=O)O)CC[C@H]21 | 11.7 µM
12 | COCC(=O)N(C)C[C@H]1Oc2cc(-c3ccccc3F)ccc2S(=O)(=O)N([C@H](C)CO)C[C@H]1C | 18.8 µM
13 | Cc1cc(C(C)(C)C)cc(S(=O)(=O)NCCc2ccncc2)c1C | 33.5 µM
14 | COCC(=O)N(C)C[C@@H]1Oc2ncc(-c3ccc(C#N)cc3)cc2C(=O)N([C@@H](C)CO)C[C@@H]1C | 18.4 µM
15 | COCC(=O)N(C)C[C@H]1Oc2cc(C#Cc3cccnc3)ccc2S(=O)(=O)N([C@H](C)CO)C[C@H]1C | 4.22 µM
